What was measured:
Assay in all cases: relative viability (nuclei count vs DMSO), 5 days (fraction); higher = more cells survive
Neratinib + Trametinib = compound: CCOc1cc2ncc(C#N)c(Nc3ccc(OCc4ccccn4)c(Cl)c3)c2cc1NC(=O)/C=C/CN(C)C [Neratinib] + CC(=O)Nc1cccc(-n2c(=O)n(C3CC3)c(=O)c3c(Nc4ccc(I)cc4F)n(C)c(=O)c(C)c32)c1 [Trametinib] (partner 0.02 µM)
Procedure, shortened: (§1)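 Nuclei were stained with Hoechst during a one-step fixation (final 0.05% Triton X-100, 1% formaldehyde, 1 ug/ml Hoechst) carried out 5 days after dosing, then counted on 4× images. The cells, lung cancer lines in 1536-well plates, had been dosed by pin tool the day after seeding with one drug alone or a fixed anchor-drug dose plus five library-drug doses (not always all listed) in √10 steps. Relative viability is the nuclei count in treated wells divided by that in vehicle wells, and each value is the median of duplicate plates.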

Neratinib + OSI-027 = compound: CCOc1cc2ncc(C#N)c(Nc3ccc(OCc4ccccn4)c(Cl)c3)c2cc1NC(=O)/C=C/CN(C)C [Neratinib] + COc1cccc2cc(-c3nc([C@H]4CC[C@H](C(=O)O)CC4)n4ncnc(N)c34)[nH]c12 [OSI-027] (partner 0.5 µM)
Procedure, shortened: as §1

Neratinib + Crizotinib = compound: CCOc1cc2ncc(C#N)c(Nc3ccc(OCc4ccccn4)c(Cl)c3)c2cc1NC(=O)/C=C/CN(C)C [Neratinib] + C[C@@H](Oc1cc(-c2cnn(C3CCNCC3)c2)cnc1N)c1c(Cl)ccc(F)c1Cl [Crizotinib] (partner 1 µM)
Procedure, shortened: as §1

Neratinib + Phenformin = compound: CCOc1cc2ncc(C#N)c(Nc3ccc(OCc4ccccn4)c(Cl)c3)c2cc1NC(=O)/C=C/CN(C)C [Neratinib] + N=C(N)NC(=N)NCCc1ccccc1 [Phenformin] (partner 250 µM)
Procedure, shortened: as §1

Work on PC-3 [JPC-3] yielded a relative viability (Neratinib + Trametinib; first compound 0.01 µM) of 0.745, a relative viability (Neratinib + Trametinib; first compound 0.03162 µM) of 0.831 and a relative viability (Neratinib + Trametinib; first compound 0.1 µM) of 0.629. It also gave a relative viability (Neratinib + Trametinib; first compound 0.3162 µM) of 0.427, a relative viability (Neratinib + Trametinib; first compound 1 µM) of 0.435 and a relative viability (Neratinib + OSI-027; first compound 0.01 µM) of 0.814. For the same cell line, the relative viability (Neratinib + OSI-027; first compound 0.03162 µM) was 0.749, the relative viability (Neratinib + OSI-027; first compound 0.1 µM) was 0.662 and the relative viability (Neratinib + OSI-027; first compound 0.3162 µM) was 0.544. For the same cell line, the relative viability (Neratinib + OSI-027; first compound 1 µM) was 0.319, the relative viability (Neratinib + Crizotinib; first compound 0.01 µM) was 1.09 and the relative viability (Neratinib + Crizotinib; first compound 0.03162 µM) was 1.09. It also gave a relative viability (Neratinib + Crizotinib; first compound 0.1 µM) of 0.997, a relative viability (Neratinib + Crizotinib; first compound 0.3162 µM) of 0.948 and a relative viability (Neratinib + Crizotinib; first compound 1 µM) of 0.345. It also gave a relative viability (Neratinib + Phenformin; first compound 0.01 µM) of 0.459, a relative viability (Neratinib + Phenformin; first compound 0.03162 µM) of 0.497 and a relative viability (Neratinib + Phenformin; first compound 0.1 µM) of 0.432. It also gave a relative viability (Neratinib + Phenformin; first compound 0.3162 µM) of 0.365 and a relative viability (Neratinib + Phenformin; first compound 1 µM) of 0.336.
For PC-14, the relative viability (Neratinib + Trametinib; first compound 0.01 µM) was 0.717, the relative viability (Neratinib + Trametinib; first compound 0.03162 µM) was 0.832 and the relative viability (Neratinib + Trametinib; first compound 0.1 µM) was 0.573. It also gave a relative viability (Neratinib + Trametinib; first compound 0.3162 µM) of 0.096, a relative viability (Neratinib + Trametinib; first compound 1 µM) of 0.0456 and a relative viability (Neratinib + OSI-027; first compound 0.01 µM) of 0.739. It also gave a relative viability (Neratinib + OSI-027; first compound 0.03162 µM) of 0.987, a relative viability (Neratinib + OSI-027; first compound 0.1 µM) of 0.798 and a relative viability (Neratinib + OSI-027; first compound 0.3162 µM) of 0.177. The relative viability (Neratinib + OSI-027; first compound 1 µM) was 0.0699, the relative viability (Neratinib + Crizotinib; first compound 0.03162 µM) was 0.851 and the relative viability (Neratinib + Crizotinib; first compound 0.1 µM) was 0.796. The relative viability (Neratinib + Crizotinib; first compound 0.3162 µM) was 0.662, the relative viability (Neratinib + Crizotinib; first compound 1 µM) was 0.356 and the relative viability (Neratinib + Phenformin; first compound 0.01 µM) was 0.602. The relative viability (Neratinib + Phenformin; first compound 0.03162 µM) was 0.764, the relative viability (Neratinib + Phenformin; first compound 0.1 µM) was 0.655 and the relative viability (Neratinib + Phenformin; first compound 0.3162 µM) was 0.267. For the same cell line, the relative viability (Neratinib + Phenformin; first compound 1 µM) was 0.186.
RERF-LC-KJ gave a relative viability (Neratinib + Trametinib; first compound 0.01 µM) of 0.844, a relative viability (Neratinib + Trametinib; first compound 0.03162 µM) of 0.889 and a relative viability (Neratinib + Trametinib; first compound 0.1 µM) of 0.785. The relative viability (Neratinib + Trametinib; first compound 0.3162 µM) was 0.694, the relative viability (Neratinib + Trametinib; first compound 1 µM) was 0.504 and the relative viability (Neratinib + OSI-027; first compound 0.01 µM) was 0.539. For the same cell line, the relative viability (Neratinib + OSI-027; first compound 0.1 µM) was 0.477, the relative viability (Neratinib + OSI-027; first compound 0.3162 µM) was 0.434 and the relative viability (Neratinib + OSI-027; first compound 1 µM) was 0.326. The relative viability (Neratinib + Crizotinib; first compound 0.01 µM) was 0.847, the relative viability (Neratinib + Crizotinib; first compound 0.03162 µM) was 0.817 and the relative viability (Neratinib + Crizotinib; first compound 0.1 µM) was 0.795. It also gave a relative viability (Neratinib + Crizotinib; first compound 0.3162 µM) of 0.701, a relative viability (Neratinib + Crizotinib; first compound 1 µM) of 0.633 and a relative viability (Neratinib + Phenformin; first compound 0.01 µM) of 0.427. For the same cell line, the relative viability (Neratinib + Phenformin; first compound 0.03162 µM) was 0.405, the relative viability (Neratinib + Phenformin; first compound 0.1 µM) was 0.385 and the relative viability (Neratinib + Phenformin; first compound 0.3162 µM) was 0.318. The relative viability (Neratinib + Phenformin; first compound 1 µM) was 0.353.
Cell Line SK-LU-1 has a relative viability (Neratinib + Trametinib; first compound 0.01 µM) of 0.517, a relative viability (Neratinib + Trametinib; first compound 0.03162 µM) of 0.58 and a relative viability (Neratinib + Trametinib; first compound 0.1 µM) of 0.457. The relative viability (Neratinib + Trametinib; first compound 0.3162 µM) was 0.442, the relative viability (Neratinib + Trametinib; first compound 1 µM) was 0.344 and the relative viability (Neratinib + OSI-027; first compound 0.01 µM) was 0.373. The relative viability (Neratinib + OSI-027; first compound 0.03162 µM) was 0.384, the relative viability (Neratinib + OSI-027; first compound 0.1 µM) was 0.305 and the relative viability (Neratinib + OSI-027; first compound 0.3162 µM) was 0.238. The relative viability (Neratinib + OSI-027; first compound 1 µM) was 0.135, the relative viability (Neratinib + Crizotinib; first compound 0.01 µM) was 1.05 and the relative viability (Neratinib + Crizotinib; first compound 0.1 µM) was 0.848. For the same cell line, the relative viability (Neratinib + Crizotinib; first compound 0.3162 µM) was 0.604, the relative viability (Neratinib + Crizotinib; first compound 1 µM) was 0.402 and the relative viability (Neratinib + Phenformin; first compound 0.01 µM) was 0.584. The relative viability (Neratinib + Phenformin; first compound 0.03162 µM) was 0.515, the relative viability (Neratinib + Phenformin; first compound 0.1 µM) was 0.521 and the relative viability (Neratinib + Phenformin; first compound 0.3162 µM) was 0.381. For the same cell line, the relative viability (Neratinib + Phenformin; first compound 1 µM) was 0.25.
SK-MES-1 was tested, and the relative viability (Neratinib + Trametinib; first compound 0.01 µM) was 0.648, the relative viability (Neratinib + Trametinib; first compound 0.03162 µM) was 0.564 and the relative viability (Neratinib + Trametinib; first compound 0.1 µM) was 0.564. For the same cell line, the relative viability (Neratinib + Trametinib; first compound 0.3162 µM) was 0.332, the relative viability (Neratinib + OSI-027; first compound 0.01 µM) was 0.566 and the relative viability (Neratinib + OSI-027; first compound 0.03162 µM) was 0.687. For the same cell line, the relative viability (Neratinib + OSI-027; first compound 0.1 µM) was 0.538, the relative viability (Neratinib + OSI-027; first compound 0.3162 µM) was 0.305 and the relative viability (Neratinib + OSI-027; first compound 1 µM) was 0.185. For the same cell line, the relative viability (Neratinib + Crizotinib; first compound 0.01 µM) was 1.02, the relative viability (Neratinib + Crizotinib; first compound 0.03162 µM) was 0.998 and the relative viability (Neratinib + Crizotinib; first compound 0.1 µM) was 0.969. For the same cell line, the relative viability (Neratinib + Crizotinib; first compound 1 µM) was 0.314, the relative viability (Neratinib + Phenformin; first compound 0.01 µM) was 0.675 and the relative viability (Neratinib + Phenformin; first compound 0.03162 µM) was 0.706. For the same cell line, the relative viability (Neratinib + Phenformin; first compound 0.1 µM) was 0.665, the relative viability (Neratinib + Phenformin; first compound 0.3162 µM) was 0.285 and the relative viability (Neratinib + Phenformin; first compound 1 µM) was 0.2.
Cell Line SW 1573 has a relative viability (Neratinib + Trametinib; first compound 0.01 µM) of 0.554, a relative viability (Neratinib + Trametinib; first compound 0.03162 µM) of 0.57 and a relative viability (Neratinib + Trametinib; first compound 0.1 µM) of 0.497. It also gave a relative viability (Neratinib + Trametinib; first compound 0.3162 µM) of 0.593, a relative viability (Neratinib + Trametinib; first compound 1 µM) of 0.276 and a relative viability (Neratinib + OSI-027; first compound 0.01 µM) of 0.685. For the same cell line, the relative viability (Neratinib + OSI-027; first compound 0.03162 µM) was 0.595, the relative viability (Neratinib + OSI-027; first compound 0.1 µM) was 0.542 and the relative viability (Neratinib + OSI-027; first compound 0.3162 µM) was 0.544. The relative viability (Neratinib + OSI-027; first compound 1 µM) was 0.276, the relative viability (Neratinib + Crizotinib; first compound 0.01 µM) was 0.91 and the relative viability (Neratinib + Crizotinib; first compound 0.03162 µM) was 0.929. It also gave a relative viability (Neratinib + Crizotinib; first compound 0.1 µM) of 0.892, a relative viability (Neratinib + Crizotinib; first compound 0.3162 µM) of 0.628 and a relative viability (Neratinib + Crizotinib; first compound 1 µM) of 0.546. It also gave a relative viability (Neratinib + Phenformin; first compound 0.01 µM) of 0.431, a relative viability (Neratinib + Phenformin; first compound 0.03162 µM) of 0.466 and a relative viability (Neratinib + Phenformin; first compound 0.1 µM) of 0.384. The relative viability (Neratinib + Phenformin; first compound 0.3162 µM) was 0.311 and the relative viability (Neratinib + Phenformin; first compound 1 µM) was 0.185.
UMC-11 was tested, and the relative viability (Neratinib + Trametinib; first compound 0.01 µM) was 0.621, the relative viability (Neratinib + Trametinib; first compound 0.03162 µM) was 0.879 and the relative viability (Neratinib + Trametinib; first compound 0.1 µM) was 0.673. The relative viability (Neratinib + Trametinib; first compound 0.3162 µM) was 0.666, the relative viability (Neratinib + Trametinib; first compound 1 µM) was 0.686 and the relative viability (Neratinib + OSI-027; first compound 0.01 µM) was 0.487. The relative viability (Neratinib + OSI-027; first compound 0.03162 µM) was 0.487, the relative viability (Neratinib + OSI-027; first compound 0.1 µM) was 0.415 and the relative viability (Neratinib + OSI-027; first compound 0.3162 µM) was 0.414. For the same cell line, the relative viability (Neratinib + OSI-027; first compound 1 µM) was 0.308, the relative viability (Neratinib + Crizotinib; first compound 0.01 µM) was 0.651 and the relative viability (Neratinib + Crizotinib; first compound 0.03162 µM) was 0.684. For the same cell line, the relative viability (Neratinib + Crizotinib; first compound 0.1 µM) was 0.52, the relative viability (Neratinib + Crizotinib; first compound 0.3162 µM) was 0.537 and the relative viability (Neratinib + Crizotinib; first compound 1 µM) was 0.528. The relative viability (Neratinib + Phenformin; first compound 0.01 µM) was 0.333, the relative viability (Neratinib + Phenformin; first compound 0.03162 µM) was 0.328 and the relative viability (Neratinib + Phenformin; first compound 0.1 µM) was 0.32. The relative viability (Neratinib + Phenformin; first compound 0.3162 µM) was 0.293 and the relative viability (Neratinib + Phenformin; first compound 1 µM) was 0.275.

From the supplement of paper PMC10307832
